Data: patent US20040033899A1, “5[(pyrazol-4-yl)carbonyl]benzazolone as herbicide” (priority 2000, published 2004)

How the values were obtained:
BRAPL = assay: greenhouse post-emergence herbicidal test; assay type: in vivo, marmelade grass
Text: (§1) The seeds of the test plants were sown separately for each species. For the post-emergence treatment, the test plants were first grown to a plant height of from 3 to 15 cm, depending on the plant habit, and only then treated with the active compounds which had been suspended or emulsified in water. To this end, the test plants were either sown directly and grown in the same containers, or they were first grown separately as seedlings and transplanted into the test containers a few days prior to treatment. The rate of application for the post-emergence treatment was 31.3, 62.5, 125 and/or 250 g of a.s. (active substance) /ha. Depending on the species, the plants were kept at from 10 to 25° C., or 20-35° C., respectively. The test period extended over 2 to 4 weeks. During this time, the plants were tended, and their response to the individual treatments was evaluated. Evaluation was carried out using a scale of from 0 to 100. 100 means no emergence of the plants, or complete destruction of at least the aerial parts, and 0 means no damage, or normal course of growth. A damage of at least 95% corresponds to very good herbicidal action. The plants used in the greenhouse experiments were of the following species: [table]

AMARE = assay: greenhouse post-emergence herbicidal test; assay type: in vivo, redroot pigweed
Text: as §1

PHBPU = assay: greenhouse post-emergence herbicidal test; assay type: in vivo, morningglory, common; details: 125 or 250 g/ha (a.s.)
Text: as §1

POLPE = assay: greenhouse post-emergence herbicidal test; assay type: in vivo, ladysthumb
Text: as §1

PAPRH = assay: greenhouse post-emergence herbicidal test; assay type: in vivo, cornpoppy; details: 31.3 or 62.5 g/ha (a.s.)
Text: as §1

THLAR = assay: greenhouse post-emergence herbicidal test; assay type: in vivo, pennycress; details: 31.3 or 62.5 g/ha (a.s.)
Text: as §1

STEME = assay: greenhouse post-emergence herbicidal test; assay type: in vivo, chickweed; details: 31.3 or 62.5 g/ha (a.s.)
Text: as §1

BIDPI = assay: greenhouse post-emergence herbicidal test; assay type: in vivo, hairy beggarticks; details: 125 or 250 g/ha (a.s.)
Text: as §1

ECHCG = assay: greenhouse post-emergence herbicidal test; assay type: in vivo, barnyardgrass; details: 125 or 250 g/ha (a.s.)
Text: as §1

CHEAL = assay: greenhouse post-emergence herbicidal test; assay type: in vivo, lambsquarters (goosefoot); details: 125 or 250 g/ha (a.s.)
Text: as §1

SETFA = assay: greenhouse post-emergence herbicidal test; assay type: in vivo, giant foxtail; details: 125 or 250 g/ha (a.s.)
Text: as §1

SMILES: Cc1c(C(=O)c2cnn(C)c2O)ccc2sc(=O)n(Cc3ccccc3)c12 [Example 16]
- melting point: 65 to 71 °C

SMILES: CCn1c(=O)oc2ccc(C(=O)c3cnn(C)c3O)c(C)c21 [Example 8]
- melting point: 156 to 157 °C

SMILES: COc1cccc(Cn2c(=O)sc3ccc(C(=O)c4cnn(C)c4O)c(C)c32)c1 [Example 45]
- melting point: 79 to 89 °C

SMILES: Cc1nn(C)c(O)c1C(=O)c1ccc2sc(=O)n(Cc3ccccc3)c2c1C [Example 18]
- melting point: 153 to 156 °C

SMILES: Cc1c(C(=O)c2cnn(C)c2O)ccc2oc(=O)n(C)c12 [Example 6]
- melting point: 200 to 203 °C

SMILES: CCn1ncc(C(=O)c2ccc3sc(=O)n(CC)c3c2C)c1OCc1ccccc1 [Example I-1h.1131]
- herbicidal action against BRAPL (BRAPL; 125 or 250 g/ha (a.s.)): very good herbicidal action (A damage of at least 95% corresponds to very good herbicidal action)
- herbicidal action against AMARE (AMARE; 125 or 250 g/ha (a.s.)): very good herbicidal action (A damage of at least 95% corresponds to very good herbicidal action)

SMILES: CCn1ncc(C(=O)c2ccc3sc(=O)n(CC)c3c2C)c1O [Example I-1b.1131]
- herbicidal action against BRAPL (BRAPL; 125 or 250 g/ha (a.s.)): very good herbicidal action (A damage of at least 95% corresponds to very good herbicidal action)
- herbicidal action against AMARE (AMARE; 125 or 250 g/ha (a.s.)): very good herbicidal action (A damage of at least 95% corresponds to very good herbicidal action)

SMILES: Cc1c(C(=O)c2cnn(C(C)C)c2O)ccc2sc(=O)n(CC3OCCO3)c12 [Example 23]
- melting point: 54 to 58 °C

SMILES: CCn1c(=O)sc2ccc(C(=O)c3cnn(C(C)(C)C)c3OCc3ccccc3)c(C)c21 [Example I-1y.1131]
- herbicidal action against PHBPU (PHBPU): very good herbicidal action (A damage of at least 95% corresponds to very good herbicidal action)
- herbicidal action against BRAPL (BRAPL; 125 or 250 g/ha (a.s.)): very good herbicidal action (A damage of at least 95% corresponds to very good herbicidal action)

SMILES: CCCn1c(=O)sc2ccc(C(=O)c3cnn(C)c3O)c(C)c21 [Example 15]
- melting point: 135 to 137 °C

SMILES: CCCn1c(=O)sc2ccc(C(=O)c3c(C)nn(C)c3O)c(C)c21 [Example 28]
- melting point: 56 to 61 °C

SMILES: CCCn1c(=O)oc2ccc(C(=O)c3cnn(C(C)C)c3O)c(C)c21 [Example 27]
- melting point: 104 to 105 °C

SMILES: Cc1c(C(=O)c2cnn(C)c2O)ccc2oc(=O)n(CC(C)C)c12 [Example 26]
- melting point: 150 to 151 °C

SMILES: Cc1c(C(=O)c2cnn(C(C)C)c2O)ccc2sc(=O)n(C)c12 [Example I-1c.1129, 3,4-dimethyl-5-(5′-hydroxy-1′-isopropylpyrazol-4-yl)carbonylbenzothiazol-2-one]
- herbicidal action against AMARE (AMARE; 31.3 or 62.5 g/ha (a.s.)): very good herbicidal action (A damage of at least 95% corresponds to very good herbicidal action)
- herbicidal action against POLPE (POLPE; 31.3 or 62.5 g/ha (a.s.)): very good herbicidal action (A damage of at least 95% corresponds to very good herbicidal action)

SMILES: CCCCCn1c(=O)sc2ccc(C(=O)c3cnn(C(C)C)c3O)c(C)c21 [Example 39]
- melting point: 105 to 107 °C

SMILES: CC#CCn1c(=O)sc2ccc(C(=O)c3cnn(C(C)C)c3O)c(C)c21 [Example 21]
- melting point: 54 to 60 °C

SMILES: CCn1ncc(C(=O)c2ccc3sc(=O)n(C)c3c2C)c1O [Example I-1b.1129, 3,4-dimethyl-5-(5′-hydroxy-1′-ethylpyrazol-4-yl)carbonylbenzothiazol-2-one]
- herbicidal action against PARPH (PAPRH): very good herbicidal action (A damage of at least 95% corresponds to very good herbicidal action)
- herbicidal action against THLAR (THLAR): very good herbicidal action (A damage of at least 95% corresponds to very good herbicidal action)
- herbicidal action against STEME (STEME): very good herbicidal action (A damage of at least 95% corresponds to very good herbicidal action)

SMILES: Cc1c(C(=O)c2cnn(C)c2OCc2ccccc2)ccc2sc(=O)n(Cc3ccccc3)c12 [Example 35]
- melting point: 150 to 151 °C

SMILES: C=CCn1c(=O)oc2ccc(C(=O)c3cnn(C)c3O)c(C)c21 [Example 7]
- melting point: 127 to 129 °C

SMILES: Cc1c(C(=O)c2cnn(C)c2O)ccc2sc(=O)n(C)c12 [Example I-1a.1129, 3,4-dimethyl-5-(5′-hydroxy-1′-methyl-pyrazol-4-yl)carbonyl benzothiazol-2-one]
- herbicidal action against THLAR (THLAR): very good herbicidal action (A damage of at least 95% corresponds to very good herbicidal action)
- herbicidal action against STEME (STEME): very good herbicidal action (A damage of at least 95% corresponds to very good herbicidal action)

SMILES: COc1cccc(Cn2c(=O)sc3ccc(C(=O)c4cnn(C(C)C)c4O)c(C)c32)c1 [Example 44]
- melting point: 71 to 74 °C

SMILES: C=CCn1c(=O)sc2ccc(C(=O)c3cnn(C)c3O)c(C)c21 [Example 4]
- melting point: 155 to 158 °C

SMILES: CCn1c(=O)sc2ccc(C(=O)c3cnn(C(C)C)c3O)c(C)c21 [Example I-1c.1131]
- herbicidal action against BRAPL (BRAPL; 125 or 250 g/ha (a.s.)): very good herbicidal action (A damage of at least 95% corresponds to very good herbicidal action)
- herbicidal action against AMARE (AMARE; 125 or 250 g/ha (a.s.)): very good herbicidal action (A damage of at least 95% corresponds to very good herbicidal action)

SMILES: CCCn1c(=O)oc2ccc(C(=O)c3cnn(C)c3O)c(C)c21 [Example I-1a.4]
- herbicidal action against BRAPL (BRAPL; 125 or 62.5 g/ha (a.s.)): very good herbicidal action (A damage of at least 95% corresponds to very good herbicidal action)
- herbicidal action against AMARE (AMARE; 125 or 62.5 g/ha (a.s.)): very good herbicidal action (A damage of at least 95% corresponds to very good herbicidal action)

SMILES: CCn1c(=O)sc2ccc(C(=O)c3cnn(C(C)(C)C)c3O)c(C)c21 [Example I-1d.1131]
- herbicidal action against BRAPL (BRAPL; 125 or 250 g/ha (a.s.)): very good herbicidal action (A damage of at least 95% corresponds to very good herbicidal action)
- herbicidal action against AMARE (AMARE; 125 or 250 g/ha (a.s.)): very good herbicidal action (A damage of at least 95% corresponds to very good herbicidal action)

SMILES: Cc1c(C(=O)c2cnn(C(C)C)c2O)ccc2sc(=O)n(Cc3ccccc3)c12 [Example 17]
- melting point: 142 to 144 °C

SMILES: CCCCn1c(=O)oc2ccc(C(=O)c3cnn(C)c3O)c(C)c21 [Example I-1a.6]
- herbicidal action against BIDPI (BIDPI): very good herbicidal action (A damage of at least 95% corresponds to very good herbicidal action)
- herbicidal action against POLPE (POLPE; 125 or 250 g/ha (a.s.)): very good herbicidal action (A damage of at least 95% corresponds to very good herbicidal action)

SMILES: Cc1c(C(=O)c2cnn(C(C)C)c2OCc2ccccc2)ccc2sc(=O)n(CC3OCCO3)c12 [Example 24]
- melting point: 133 to 134 °C

SMILES: CCn1c(=O)sc2ccc(C(=O)c3cnn(C)c3O)c(C)c21 [Example I-1a.1131]
- herbicidal action against BRAPL (BRAPL; 125 or 250 g/ha (a.s.)): very good herbicidal action (A damage of at least 95% corresponds to very good herbicidal action)
- herbicidal action against AMARE (AMARE; 125 or 250 g/ha (a.s.)): very good herbicidal action (A damage of at least 95% corresponds to very good herbicidal action)

SMILES: CCn1c(=O)sc2ccc(C(=O)c3cnn(C)c3OCc3ccccc3)c(C)c21 [Example I-1g.1131]
- herbicidal action against BRAPL (BRAPL; 125 or 250 g/ha (a.s.)): very good-herbicidal action
- herbicidal action against ECHCG (ECHCG): very good-herbicidal action
- herbicidal action against AMARE (AMARE; 125 or 250 g/ha (a.s.)): very good-herbicidal action
- herbicidal action against CHEAL (CHEAL): very good-herbicidal action
- herbicidal action against SETFA (SETFA): very good-herbicidal action

SMILES: CC#CCn1c(=O)sc2ccc(C(=O)c3cnn(C)c3O)c(C)c21 [Example 20]
- melting point: 140 to 147 °C
